Laboratory results: publication PMC11785709, “Angelica gigas Nakai (Korean Dang-gui) Root Alcoholic Extracts in Health Promotion and Disease Therapy – active Phytochemicals and In Vivo Molecular Targets” (Pharmaceutical Research, 2025)
Where “and” joins values, the source holds several entries; their conditions need not be identical. Identical values can stand only once. Like-named read-outs stand apart in the source and are kept apart here.

Columns and labels:
[1] = molecular target: T1, ROCK1 (Homo sapiens, UniProt Q13464); assay: KINOMEscan competition binding; set-up: purchased Eurofins DiscoverX (KINOMEscan)
T1 sequence (Q13464 whole entry): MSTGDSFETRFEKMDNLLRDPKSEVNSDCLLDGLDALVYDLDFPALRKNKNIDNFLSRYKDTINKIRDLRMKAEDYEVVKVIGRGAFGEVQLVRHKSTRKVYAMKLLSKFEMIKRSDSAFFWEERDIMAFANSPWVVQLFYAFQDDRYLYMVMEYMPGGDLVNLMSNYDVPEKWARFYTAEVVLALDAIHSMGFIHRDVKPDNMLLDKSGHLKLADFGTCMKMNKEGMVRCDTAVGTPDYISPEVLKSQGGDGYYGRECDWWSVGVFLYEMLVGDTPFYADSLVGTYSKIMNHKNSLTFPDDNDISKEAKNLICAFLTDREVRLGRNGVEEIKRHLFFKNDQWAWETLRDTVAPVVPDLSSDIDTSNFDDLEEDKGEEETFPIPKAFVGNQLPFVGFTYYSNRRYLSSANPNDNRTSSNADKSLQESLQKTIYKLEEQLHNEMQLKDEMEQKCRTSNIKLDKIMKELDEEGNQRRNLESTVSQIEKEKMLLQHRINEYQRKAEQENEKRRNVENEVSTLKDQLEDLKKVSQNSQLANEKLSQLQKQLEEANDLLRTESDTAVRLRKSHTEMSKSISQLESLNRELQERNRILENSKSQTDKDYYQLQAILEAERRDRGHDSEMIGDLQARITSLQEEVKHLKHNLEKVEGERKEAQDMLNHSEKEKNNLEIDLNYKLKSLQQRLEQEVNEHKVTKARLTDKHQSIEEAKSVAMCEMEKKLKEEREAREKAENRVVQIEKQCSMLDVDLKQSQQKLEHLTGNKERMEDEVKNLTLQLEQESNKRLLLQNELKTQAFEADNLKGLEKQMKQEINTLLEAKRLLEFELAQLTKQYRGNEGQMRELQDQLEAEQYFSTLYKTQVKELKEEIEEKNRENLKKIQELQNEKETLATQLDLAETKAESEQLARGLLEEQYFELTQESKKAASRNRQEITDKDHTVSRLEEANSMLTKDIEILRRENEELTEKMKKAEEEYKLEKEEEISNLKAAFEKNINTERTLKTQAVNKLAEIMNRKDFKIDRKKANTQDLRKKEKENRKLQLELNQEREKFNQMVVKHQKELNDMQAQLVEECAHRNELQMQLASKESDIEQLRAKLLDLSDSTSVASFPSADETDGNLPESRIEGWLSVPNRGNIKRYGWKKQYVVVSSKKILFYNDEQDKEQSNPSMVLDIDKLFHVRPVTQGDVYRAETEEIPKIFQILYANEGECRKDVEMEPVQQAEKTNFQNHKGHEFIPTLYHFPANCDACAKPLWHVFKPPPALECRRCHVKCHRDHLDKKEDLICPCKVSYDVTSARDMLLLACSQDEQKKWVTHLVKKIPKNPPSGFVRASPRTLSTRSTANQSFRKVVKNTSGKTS
Protocol: (§1) Two distinct platforms were used for initial screening with 50 µM DOH vs. DMSO vehicle. The first was the Eurofins DiscoverX KINOMEscan® (Freemont, CA USA) profiling platform, which employed a proprietary active site-directed competition binding assay to quantitatively measure interactions between a test compound (i.e., DOH) and 468 human protein kinases and disease relevant mutant variants either directly (sterically) or indirectly (allosterically) to prevent a kinase binding to its immobilized substrate (ligand). The top 8 hits were subjected to secondary screening verification by DOH concentration-titration for dissociation constant (Kd). For ROCK1 and ROCK2, DA was chosen for Kd titration as well, because it is ~ 10 × higher than D in peripheral circulation due to its resistance to hydrolysis by carboxyesterase-2 (Fig. 1C).

[2] = molecular target: T2, ROCK2 (Homo sapiens, UniProt O75116); assay: KINOMEscan competition binding; set-up: purchased Eurofins DiscoverX (KINOMEscan)
T2 sequence (O75116 whole entry): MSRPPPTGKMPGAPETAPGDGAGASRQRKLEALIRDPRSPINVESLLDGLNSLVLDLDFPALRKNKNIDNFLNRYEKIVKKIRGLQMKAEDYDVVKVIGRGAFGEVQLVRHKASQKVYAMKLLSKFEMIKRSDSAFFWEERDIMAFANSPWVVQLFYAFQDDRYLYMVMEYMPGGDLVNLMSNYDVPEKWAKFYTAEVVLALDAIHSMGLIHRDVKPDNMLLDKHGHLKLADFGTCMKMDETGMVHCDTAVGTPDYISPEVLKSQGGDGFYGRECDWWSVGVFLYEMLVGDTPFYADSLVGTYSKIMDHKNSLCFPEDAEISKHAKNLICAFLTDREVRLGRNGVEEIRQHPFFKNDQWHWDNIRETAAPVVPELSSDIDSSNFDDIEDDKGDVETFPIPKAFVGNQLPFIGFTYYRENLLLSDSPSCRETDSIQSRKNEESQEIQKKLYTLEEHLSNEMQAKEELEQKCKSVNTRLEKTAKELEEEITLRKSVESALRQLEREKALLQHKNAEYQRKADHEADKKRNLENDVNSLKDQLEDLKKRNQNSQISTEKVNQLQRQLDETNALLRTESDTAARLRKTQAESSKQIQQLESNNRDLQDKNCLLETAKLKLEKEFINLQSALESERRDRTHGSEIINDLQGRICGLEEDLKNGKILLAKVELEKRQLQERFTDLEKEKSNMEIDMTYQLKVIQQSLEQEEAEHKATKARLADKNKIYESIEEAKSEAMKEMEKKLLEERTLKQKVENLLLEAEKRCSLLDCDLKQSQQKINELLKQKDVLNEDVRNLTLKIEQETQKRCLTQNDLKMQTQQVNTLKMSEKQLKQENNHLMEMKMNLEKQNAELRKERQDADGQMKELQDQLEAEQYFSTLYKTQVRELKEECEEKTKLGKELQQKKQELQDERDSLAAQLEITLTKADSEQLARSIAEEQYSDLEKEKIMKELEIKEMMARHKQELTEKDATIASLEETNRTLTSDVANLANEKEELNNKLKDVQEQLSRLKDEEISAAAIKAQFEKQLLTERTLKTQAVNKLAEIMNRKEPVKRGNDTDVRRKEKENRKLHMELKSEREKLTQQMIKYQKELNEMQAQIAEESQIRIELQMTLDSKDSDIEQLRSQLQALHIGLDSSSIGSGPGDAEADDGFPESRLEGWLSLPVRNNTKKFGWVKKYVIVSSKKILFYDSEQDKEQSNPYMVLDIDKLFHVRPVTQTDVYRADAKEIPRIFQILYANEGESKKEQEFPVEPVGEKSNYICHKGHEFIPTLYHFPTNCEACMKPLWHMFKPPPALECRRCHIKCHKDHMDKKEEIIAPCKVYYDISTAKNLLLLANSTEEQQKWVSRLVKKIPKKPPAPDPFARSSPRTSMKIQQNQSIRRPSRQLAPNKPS
Protocol: as §1

[3] = molecular target: T3, MKNK2 (Homo sapiens, UniProt Q9HBH9); assay: KINOMEscan competition binding; settings: for Kd: validation Kd titration, 0.003 to 50 µM, two values per cell
T3 construct: purchased Eurofins DiscoverX (KINOMEscan)
T3 sequence (Q9HBH9 whole entry): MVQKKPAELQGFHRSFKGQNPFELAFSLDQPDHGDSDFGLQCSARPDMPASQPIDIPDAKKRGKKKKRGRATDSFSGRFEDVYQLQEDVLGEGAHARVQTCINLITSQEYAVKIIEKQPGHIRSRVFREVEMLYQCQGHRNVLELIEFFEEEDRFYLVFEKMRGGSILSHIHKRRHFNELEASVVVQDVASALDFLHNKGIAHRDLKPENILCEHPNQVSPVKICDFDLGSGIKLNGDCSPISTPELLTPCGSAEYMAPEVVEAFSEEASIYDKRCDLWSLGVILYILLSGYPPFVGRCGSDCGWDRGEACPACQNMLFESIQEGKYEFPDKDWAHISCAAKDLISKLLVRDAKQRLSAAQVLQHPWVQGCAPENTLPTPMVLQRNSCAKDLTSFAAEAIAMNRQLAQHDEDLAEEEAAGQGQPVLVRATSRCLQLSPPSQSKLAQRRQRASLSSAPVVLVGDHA
Protocol: as §1

[4] = molecular target: T4, DRAK2 (STK17B) (Homo sapiens, UniProt O94768); assay: KINOMEscan competition binding; settings: for Kd: validation Kd titration, 0.003 to 50 µM, two values per cell
T4 construct: purchased Eurofins DiscoverX (KINOMEscan)
T4 sequence (O94768 1-372): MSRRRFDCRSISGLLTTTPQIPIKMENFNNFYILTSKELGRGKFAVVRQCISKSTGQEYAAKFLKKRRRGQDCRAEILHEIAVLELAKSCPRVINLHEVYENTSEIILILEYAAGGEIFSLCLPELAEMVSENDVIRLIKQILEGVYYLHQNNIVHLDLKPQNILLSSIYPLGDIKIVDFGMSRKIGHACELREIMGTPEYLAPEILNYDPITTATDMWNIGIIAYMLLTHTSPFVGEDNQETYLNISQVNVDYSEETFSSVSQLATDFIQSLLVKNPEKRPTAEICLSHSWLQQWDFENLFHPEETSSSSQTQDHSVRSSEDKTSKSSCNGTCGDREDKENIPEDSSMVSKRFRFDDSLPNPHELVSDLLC
Protocol: as §1

[5] = molecular target: T1, ROCK1; assay: Reaction Biology kinase activity inhibition; assay type: biochemical; set-up: purchased Reaction Biology (Malvern, PA)
Text: (§2) The second screening was the Reaction Biology® (Malvern, PA) kinase activity inhibition tests, which screened for more than 600 protein kinases and lipid kinases, using miniaturized radioisotope-based assay platform with γ-^33P-ATP, followed by confirmation with IC50 kinase profiling service with 5 concentrations of test compound (i.e., DOH and DA) with curve fitting.

[6] = molecular target: T2, ROCK2; assay: Reaction Biology kinase activity inhibition; assay type: biochemical; set-up: purchased Reaction Biology (Malvern, PA)
Text: as §2

[7] = molecular target: T5, DDR1 (Homo sapiens, UniProt Q08345); assay: Reaction Biology kinase activity inhibition; assay type: biochemical; settings: for IC50: validation titration, 6.25 to 100 µM, Hotspot confirmation
T5 construct: purchased Reaction Biology (Malvern, PA)
T5 sequence (Q08345 19-913): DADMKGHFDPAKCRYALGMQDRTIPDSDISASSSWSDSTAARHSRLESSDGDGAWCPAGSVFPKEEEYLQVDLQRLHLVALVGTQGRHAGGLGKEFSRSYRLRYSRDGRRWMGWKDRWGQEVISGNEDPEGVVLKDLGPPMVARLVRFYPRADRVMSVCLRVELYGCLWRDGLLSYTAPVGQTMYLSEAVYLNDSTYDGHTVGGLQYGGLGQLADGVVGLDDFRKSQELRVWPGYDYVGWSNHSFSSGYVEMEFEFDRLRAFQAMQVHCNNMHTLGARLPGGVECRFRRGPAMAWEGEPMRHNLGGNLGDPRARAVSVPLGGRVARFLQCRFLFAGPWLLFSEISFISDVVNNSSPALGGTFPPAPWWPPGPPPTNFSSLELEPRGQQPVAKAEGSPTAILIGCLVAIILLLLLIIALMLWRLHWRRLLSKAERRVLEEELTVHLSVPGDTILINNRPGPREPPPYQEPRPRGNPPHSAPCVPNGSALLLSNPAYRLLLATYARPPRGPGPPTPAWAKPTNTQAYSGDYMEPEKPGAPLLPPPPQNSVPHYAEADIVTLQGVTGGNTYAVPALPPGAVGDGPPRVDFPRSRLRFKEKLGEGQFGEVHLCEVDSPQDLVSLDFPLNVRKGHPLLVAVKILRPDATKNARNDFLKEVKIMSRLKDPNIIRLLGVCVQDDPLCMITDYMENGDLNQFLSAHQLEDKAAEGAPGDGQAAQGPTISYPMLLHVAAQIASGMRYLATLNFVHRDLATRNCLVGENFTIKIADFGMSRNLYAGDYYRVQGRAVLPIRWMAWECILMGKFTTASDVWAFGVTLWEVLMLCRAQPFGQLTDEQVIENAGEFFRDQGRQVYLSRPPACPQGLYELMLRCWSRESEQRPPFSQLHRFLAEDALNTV
Text: as §2

[8] = molecular target: T6, CAMKK1 (Homo sapiens, UniProt Q8N5S9); assay: Reaction Biology kinase activity inhibition; assay type: biochemical; settings: for IC50: validation titration, 6.25 to 100 µM, Hotspot confirmation
T6 construct: purchased Reaction Biology (Malvern, PA)
T6 sequence (Q8N5S9 whole entry): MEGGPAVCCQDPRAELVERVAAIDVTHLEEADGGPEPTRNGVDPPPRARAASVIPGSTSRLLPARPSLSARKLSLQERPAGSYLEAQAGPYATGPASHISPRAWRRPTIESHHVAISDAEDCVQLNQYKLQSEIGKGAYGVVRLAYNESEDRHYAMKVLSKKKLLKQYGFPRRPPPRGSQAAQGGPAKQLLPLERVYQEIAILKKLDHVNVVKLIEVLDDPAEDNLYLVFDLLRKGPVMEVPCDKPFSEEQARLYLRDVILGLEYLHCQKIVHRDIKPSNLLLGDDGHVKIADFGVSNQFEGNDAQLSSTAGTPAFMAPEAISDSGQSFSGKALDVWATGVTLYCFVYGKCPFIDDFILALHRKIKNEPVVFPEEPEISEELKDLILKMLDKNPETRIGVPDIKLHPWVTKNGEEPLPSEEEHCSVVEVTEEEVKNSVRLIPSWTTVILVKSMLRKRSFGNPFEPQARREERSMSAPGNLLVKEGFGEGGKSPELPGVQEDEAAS
Text: as §2

[9] = molecular target: T7, PDK2/PDHK2 (Homo sapiens, UniProt Q15119); assay: Reaction Biology kinase activity inhibition; assay type: biochemical; settings: for IC50: validation titration, 6.25 to 100 µM, Hotspot confirmation
T7 construct: purchased Reaction Biology (Malvern, PA)
Text: as §2

[10] = molecular target: T8, BRSK2 (Homo sapiens, UniProt Q8IWQ3); assay: Reaction Biology kinase activity inhibition; assay type: biochemical; settings: for IC50: validation titration, 6.25 to 100 µM, Hotspot confirmation
T8 construct: purchased Reaction Biology (Malvern, PA)
T8 sequence (Q8IWQ3 1-736): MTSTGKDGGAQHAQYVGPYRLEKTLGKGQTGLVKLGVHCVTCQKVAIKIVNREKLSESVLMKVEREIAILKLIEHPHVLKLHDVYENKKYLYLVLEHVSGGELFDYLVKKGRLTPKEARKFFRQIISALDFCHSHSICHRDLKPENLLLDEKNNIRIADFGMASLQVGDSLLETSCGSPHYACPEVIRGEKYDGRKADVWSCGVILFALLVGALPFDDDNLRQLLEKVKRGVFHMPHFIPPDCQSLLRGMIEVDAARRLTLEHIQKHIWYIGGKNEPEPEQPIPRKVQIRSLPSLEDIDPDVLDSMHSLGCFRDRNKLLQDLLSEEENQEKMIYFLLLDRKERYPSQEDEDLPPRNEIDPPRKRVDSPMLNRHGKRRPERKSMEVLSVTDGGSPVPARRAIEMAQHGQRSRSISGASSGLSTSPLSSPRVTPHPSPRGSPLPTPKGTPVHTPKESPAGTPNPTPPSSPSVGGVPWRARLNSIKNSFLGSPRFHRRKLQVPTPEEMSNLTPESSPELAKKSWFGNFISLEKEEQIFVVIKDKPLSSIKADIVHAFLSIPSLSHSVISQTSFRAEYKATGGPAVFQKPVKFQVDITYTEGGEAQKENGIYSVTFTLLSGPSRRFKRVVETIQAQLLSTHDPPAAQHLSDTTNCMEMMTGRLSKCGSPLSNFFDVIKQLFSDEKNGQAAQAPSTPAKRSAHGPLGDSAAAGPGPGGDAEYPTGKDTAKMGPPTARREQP
Text: as §2

[11] = tested on: MAO-B; set-up: method as in PMID 28109809; settings: screened at 10 μM; cited from earlier work
[12] = tested on: human MAO-A; set-up: method as in PMID 28109809; settings: cited from earlier work; for IC50: read-out: MAO-A inhibition IC50
[13] = cited from earlier work; for Cmax: 4.6 g AGN root powder per subject (0.055 mg D, 0.184 mg DA, 1.095 mg nodakenin); for t1/2 / tmax: 4.6 g AGN root powder per subject
[14] = Eurofins DiscoveRx, Table 1, read-out: ROCK1 Kd
[15] = validation Kd titration, 0.003 to 50 µM, two values per cell, read-out: Kd
[16] = Eurofins DiscoveRx, Table 1, read-out: ROCK2 Kd
[17] = Reaction Biology, Inc, Table 1, read-out: ROCK1 IC50
[18] = validation titration, 6.25 to 100 µM, Hotspot confirmation, read-out: IC50
[19] = Reaction Biology, Inc, Table 1, read-out: ROCK2 IC50
[20] = initial screening, DOH 50 µM, read-out: Substrate bound % Control
[21] = initial screening, DOH (50 µM), Data 1 and Data 2
[22] = initial screening, DOH (50 µM), Data 1 and Data 2, read-out: % Enzyme Activity (relative to DMSO controls)

C/C=C(/C)C(=O)O[C@H]1Cc2cc3ccc(=O)oc3cc2OC1(C)C [DA, decursinol angelate]
Kd [1, 14]: 2.1 µM | Kd [1, 15]: 1.9 µM and 2.3 µM | Kd [2, 16]: 5.6 µM | Kd [2, 15]: 5.4 µM and 5.8 µM | Kd [3]: > 50 µM | Kd [4]: > 50 µM | IC50 [5, 17]: 18 µM | IC50 [5, 18]: 16 µM and 20 µM | IC50 [6, 19]: 23 µM | IC50 [6, 18]: 22 µM | IC50 [7]: > 100 µM | IC50 [8]: > 100 µM | IC50 [9]: > 100 µM | IC50 [10]: > 100 µM | inhibitory activity on MAO-B [11]: lacked any inhibitory activity | IC50 [12]: 12.8 µM | Cmax [13]: 7.72 ng/mL | t1/2 [13]: 4.04 h | tmax [13]: 0.31 h

CC1(C)Oc2cc3oc(=O)ccc3cc2C[C@@H]1O [DOH, decursinol]
Kd [1, 14]: 7.5 µM | remaining binding at 50 µM [1, 20]: 12% | Kd [1, 15]: 7.3 µM and 7.6 µM | Kd [2, 16]: 14.5 µM | remaining binding at 50 µM [2, 20]: 21% | Kd [2, 15]: 14 µM and 15 µM | remaining binding at 50 µM [3, 20]: 25% | Kd [3]: 20 µM and 25 µM | remaining binding at 50 µM [4, 20]: 24% | Kd [4]: 21 µM and 22 µM | IC50 [5, 17]: 81 µM | DOH % Inhibition ([5]; initial screening, DOH 50 µM): 26.6% | inhibition at 50 µM ([5]; initial screening, DOH 50 µM): 27% | % Enzyme Activity (relative to DMSO controls) [5, 21]: 72.1% | remaining activity at 50 µM [5, 22]: 74.7% | IC50 [6, 19]: 85 µM | DOH % Inhibition ([6]; initial screening, DOH 50 µM): 43.2% | inhibition at 50 µM ([6]; initial screening, DOH 50 µM): 43% | % Enzyme Activity (relative to DMSO controls) [6, 21]: 56.1% | remaining activity at 50 µM [6, 22]: 57.5% | inhibition at 50 µM ([7]; initial screening, DOH 50 µM): 49% | % Enzyme Activity (relative to DMSO controls) [7, 21]: 49.7% | remaining activity at 50 µM [7, 22]: 52.3% | IC50 [7]: > 100 µM | inhibition at 50 µM ([8]; initial screening, DOH 50 µM): 40.3% | % Enzyme Activity (relative to DMSO controls) [8, 21]: 59.3% | remaining activity at 50 µM [8, 22]: 60.1% | IC50 [8]: > 100 µM | inhibition at 50 µM ([9]; initial screening, DOH 50 µM): 39.7% | % Enzyme Activity (relative to DMSO controls) [9, 21]: 59.8% | remaining activity at 50 µM [9, 22]: 60.8% | IC50 [9]: > 100 µM | inhibition at 50 µM ([10]; initial screening, DOH 50 µM): 46.8% | % Enzyme Activity (relative to DMSO controls) [10, 21]: 52.6% | remaining activity at 50 µM [10, 22]: 53.8% | IC50 [10]: > 100 µM | inhibitory activity on MAO-B [11]: lacked any inhibitory activity | MAO-A initial screen ([12]; at 10 μM): failed the initial screen | IC50 [12]: > 10 µM | Cmax [13]: 0.92 ng/mL | t1/2 [13]: 2.62 h | tmax [13]: 0.64 h
